{"source": "patent US20250144067A1", "about": "“PERSONALIZED STARVATION THERAPY FOR CANCER” (Faeth Therapeutics, Inc., priority 2021, published 2025)", "key": {"[1]": {"tested_on": "NCI-H292 lung cancer cells", "assay": "FDA drug screening, complete media vs cholesterol-free media with simvastatin (TABLE 2)", "assay_type": "cell-based, human"}, "[2]": {"tested_on": "NCI-H292 lung cancer cells", "assay": "FDA drug screening, complete media vs cholesterol-free media without statin (TABLE 1)", "assay_type": "cell-based, human"}, "[3]": {"details": "NCI-H292 cells, FDA drug library screen, cholesterol-free media with simvastatin 0.04 μM"}, "[4]": {"details": "NCI-H292 cells, FDA drug library screen, complete media"}, "[5]": {"details": "complete media vs cholesterol-free media + simvastatin (0.04 μM), >0 enhanced anti-cancer activity, about 0 neutral, <0 antagonist"}, "[6]": {"details": "NCI-H292 cells, cholesterol-free media without statin"}, "[7]": {"details": "complete vs cholesterol-free media, greater than 0 enhanced anti-cancer activity, about 0 neutral, below 0 antagonists"}, "[8]": {"details": "complete media minus cholesterol-free media + simvastatin, >0 enhanced anti-cancer activity, about 0 neutral, <0 antagonist"}, "[9]": {"details": "Complete minus Cholesterol-free, >0 enhanced anti-cancer activity, about 0 neutral, <0 antagonist"}, "[10]": {"details": "NCI-H292 cells, FDA library drug in cholesterol-free media with simvastatin 0.04 μM"}, "[11]": {"details": "NCI-H292 cells, FDA library drug in complete media"}, "[12]": {"details": "NCI-H292 cells, drug in cholesterol-free media with simvastatin 0.04 μM"}, "[13]": {"details": "NCI-H292 cells, drug in complete media"}, "[14]": {"details": "complete media vs cholesterol-free media + simvastatin (0.04 μM), […]"}, "[15]": {"details": "complete vs cholesterol-free media, […]"}, "[16]": {"details": "NCI-H292 cells, cholesterol-free media with simvastatin 0.04 μM, cell growth value in FDA drug screen"}, "[17]": {"details": "NCI-H292 cells, complete media, cell growth value in FDA drug screen"}, "[18]": {"details": "NCI-H292 cells, cholesterol-free media without statin, FDA drug library screen"}}, "note": "Like-named read-outs stand apart in the source and are kept apart here."}
{"compound": "CCC(CC)[C@H](NC(C)=O)[C@@H]1[C@H](O)[C@@H](C(=O)O)C[C@H]1NC(=N)N.O.O.O", "note": "[Peramivir (trihydrate)]", "values": [{"measurement": "Cholesterol-free media + simvastatin (0.04 μM)", "setting": "[1]; [3]", "value": 1.025}, {"measurement": "Complete Media", "setting": "[1]; [4]", "value": 0.9283}, {"measurement": "Difference", "setting": "[1]; [5]", "value": "−0.10"}, {"measurement": "Cholesterol-free", "setting": "[2]; [6]", "value": 2.062}, {"measurement": "Complete", "setting": "[2]; NCI-H292 cells, complete media", "value": 1.606}, {"measurement": "Difference", "setting": "[2]; [7]", "value": "−0.46"}]}
{"compound": "CC(C)(CCCCCC(O)CCCCCC(C)(C)C(=O)O)C(=O)O", "note": "[Bempedoic acid]", "values": [{"measurement": "Cholesterol-free media + simvastatin (0.04 μM)", "setting": "[1]; [3]", "value": 1.143}, {"measurement": "Complete Media", "setting": "[1]; [4]", "value": 1.281}, {"measurement": "Difference", "setting": "[1]; [8]", "value": 0.14}, {"measurement": "Difference", "setting": "[2]; [9]", "value": "−0.25"}, {"measurement": "Cholesterol-free", "setting": "[2]; [6]", "value": 1.343}, {"measurement": "Complete", "setting": "[2]; NCI-H292 cells, complete media", "value": 1.094}]}
{"compound": "Cn1c(=O)cc(N2CCC[C@@H](N)C2)n(Cc2ccccc2C#N)c1=O.O=C(O)c1ccccc1", "note": "[Alogliptin (Benzoate)]", "values": [{"measurement": "Cholesterol-free media + simvastatin (0.04 μM)", "setting": "[1]; [3]", "value": 1.087}, {"measurement": "Complete Media", "setting": "[1]; [4]", "value": 0.9402}, {"measurement": "Difference", "setting": "[1]; [5]", "value": "−0.15"}, {"measurement": "Difference", "setting": "[2]; Complete minus Cholesterol-free, greater than 0 enhanced anti-cancer activity, about 0 neutral, below 0 antagonist", "value": "−0.08"}, {"measurement": "Cholesterol-free", "setting": "[2]; NCI-H292 cells, FDA drug library screen, cholesterol-free media without statin", "value": 0.8854}, {"measurement": "Complete", "setting": "[2]; [4]", "value": 0.8074}]}
{"compound": "O=c1ccn([C@@H]2O[C@H](CO)[C@@H](O)[C@H]2O)c(=O)[nH]1", "note": "[Uridine]", "values": [{"measurement": "Cholesterol-free media + simvastatin (0.04 μM)", "setting": "[1]; [10]", "value": 1.294}, {"measurement": "Complete Media", "setting": "[1]; [11]", "value": 1.006}, {"measurement": "Difference", "setting": "[1]; [5]", "value": "−0.29"}, {"measurement": "Difference", "setting": "[2]; [9]", "value": "−0.19"}, {"measurement": "Cholesterol-free", "setting": "[2]; [6]", "value": 1.404}, {"measurement": "Complete", "setting": "[2]; NCI-H292 cells, complete media", "value": 1.215}]}
{"compound": "CCC[S+]([O-])c1ccc2[nH]c(NC(=O)OC)nc2c1", "note": "(stereo not shown) [Albendazole sulfoxide]", "values": [{"measurement": "Cholesterol-free media + simvastatin (0.04 μM)", "setting": "[1]; [12]", "value": 1.376}, {"measurement": "Complete Media", "setting": "[1]; [13]", "value": 1.125}, {"measurement": "Difference", "setting": "[1]; [14]", "value": "−0.25"}, {"measurement": "Cholesterol-free", "setting": "[2]; [6]", "value": 1.467}, {"measurement": "Complete", "setting": "[2]; NCI-H292 cells, complete media", "value": 1.005}, {"measurement": "Difference", "setting": "[2]; [15]", "value": "−0.46"}]}
{"compound": "Cn1c(=O)c2c(ncn2CC2OCCO2)n(C)c1=O", "note": "[Doxofylline]", "values": [{"measurement": "Cholesterol-free media + simvastatin (0.04 μM)", "setting": "[1]; [10]", "value": 1.302}, {"measurement": "Complete Media", "setting": "[1]; [11]", "value": 1.024}, {"measurement": "Difference", "setting": "[1]; [5]", "value": "−0.28"}, {"measurement": "Cholesterol-free", "setting": "[2]; [6]", "value": 1.338}, {"measurement": "Complete", "setting": "[2]; NCI-H292 cells, complete media", "value": 0.9897}, {"measurement": "Difference", "setting": "[2]; [7]", "value": "−0.35"}]}
{"compound": "COC[C@H]1C[C@@H](c2nc(-c3ccc4c(c3)COc3cc5c(ccc6nc([C@@H]7CC[C@H](C)N7C(=O)[C@@H](NC(=O)OC)C(C)C)[nH]c65)cc3-4)c[nH]2)N(C(=O)[C@H](NC(=O)OC)c2ccccc2)C1", "note": "[Velpatasvir]", "values": [{"measurement": "Cholesterol-free media + simvastatin (0.04 μM)", "setting": "[1]; [16]", "value": 0.7455}, {"measurement": "Complete Media", "setting": "[1]; [17]", "value": 0.7768}, {"measurement": "Difference", "setting": "[1]; [8]", "value": 0.03}, {"measurement": "Difference", "setting": "[2]; [9]", "value": "−0.30"}, {"measurement": "Cholesterol-free", "setting": "[2]; [6]", "value": 1.014}, {"measurement": "Complete", "setting": "[2]; NCI-H292 cells, complete media", "value": 0.7173}]}
{"compound": "C[C@H]1C[C@@H]2[C@H]([C@@H](O)C[C@@]3(C)[C@H]2CC[C@]3(O)C(=O)COC(=O)CCC(=O)O)[C@@]2(C)C=CC(=O)C=C12", "note": "[Methylprednisolone succinate]", "values": [{"measurement": "Cholesterol-free media + simvastatin (0.04 μM)", "setting": "[1]; [12]", "value": 0.9151}, {"measurement": "Complete Media", "setting": "[1]; [13]", "value": 0.7051}, {"measurement": "Difference", "setting": "[1]; [5]", "value": "−0.21"}, {"measurement": "Cholesterol-free", "setting": "[2]; [6]", "value": 0.8243}, {"measurement": "Complete", "setting": "[2]; NCI-H292 cells, complete media", "value": 0.4661}, {"measurement": "Difference", "setting": "[2]; [7]", "value": "−0.36"}]}
{"compound": "NC(CO)(CO)CO.O=C(c1ccccc1)c1ccc2n1CCC2C(=O)O", "note": "(stereo not shown) [Ketorolac (tromethamine salt)]", "values": [{"measurement": "Cholesterol-free media + simvastatin (0.04 μM)", "setting": "[1]; [12]", "value": 1.289}, {"measurement": "Complete Media", "setting": "[1]; [13]", "value": 1.116}, {"measurement": "Difference", "setting": "[1]; [5]", "value": "−0.17"}, {"measurement": "Cholesterol-free", "setting": "[2]; [6]", "value": 1.112}, {"measurement": "Complete", "setting": "[2]; NCI-H292 cells, complete media", "value": 0.6871}, {"measurement": "Difference", "setting": "[2]; [7]", "value": "−0.42"}]}
{"compound": "CC(C)Cc1ccc(C(C)C(=O)O)cc1", "note": "(stereo not shown) [Ibuprofen]", "values": [{"measurement": "Cholesterol-free media + simvastatin (0.04 μM)", "setting": "[1]; [10]", "value": 1.512}, {"measurement": "Difference", "setting": "[1]; [5]", "value": "−0.36"}, {"measurement": "Cholesterol-free", "setting": "[2]; [6]", "value": 1.419}, {"measurement": "Complete", "setting": "[2]; NCI-H292 cells, complete media", "value": 1.058}, {"measurement": "Difference", "setting": "[2]; [7]", "value": "−0.36"}]}
{"compound": "Icatibant (acetate)", "values": [{"measurement": "Cholesterol-free media + simvastatin (0.04 μM)", "setting": "[1]; [12]", "value": 1.025}, {"measurement": "Complete Media", "setting": "[1]; [13]", "value": 0.7948}, {"measurement": "Difference", "setting": "[1]; [14]", "value": "−0.23"}, {"measurement": "Cholesterol-free", "setting": "[2]; [6]", "value": 1.121}, {"measurement": "Complete", "setting": "[2]; NCI-H292 cells, complete media", "value": 0.7693}, {"measurement": "Difference", "setting": "[2]; [15]", "value": "−0.35"}]}
{"compound": "Cc1ncc(COP(=O)(O)O)c(C)c1O", "note": "[4-Deoxypyridoxine 5′-phosphate]", "values": [{"measurement": "Cholesterol-free media + simvastatin (0.04 μM)", "setting": "[1]; [12]", "value": 1.284}, {"measurement": "Complete Media", "setting": "[1]; [13]", "value": 1.065}, {"measurement": "Difference", "setting": "[1]; [14]", "value": "−0.22"}, {"measurement": "Cholesterol-free", "setting": "[2]; [18]", "value": 0.7389}, {"measurement": "Difference", "setting": "[2]; [15]", "value": 0.41}]}
{"compound": "N=C(N)NCCCC(N)C(=O)O", "note": "(racemic) [DL-Arginine]", "values": [{"measurement": "Cholesterol-free media + simvastatin (0.04 μM)", "setting": "[1]", "value": 0.9889}, {"measurement": "Complete Media", "setting": "[1]", "value": 0.9776}, {"measurement": "Difference", "setting": "[1]", "value": "−0.01"}, {"measurement": "Cholesterol-free", "setting": "[2]", "value": 1.525}, {"measurement": "Complete", "setting": "[2]", "value": 1.476}, {"measurement": "Difference", "setting": "[2]", "value": "−0.05"}]}
{"compound": "C[C@]12CCC(=O)C=C1CC[C@@H]1[C@@H]2[C@@H](O)C[C@@]2(C)[C@H]1CC[C@]2(O)C(=O)CO", "note": "[Hydrocortisone]", "values": [{"measurement": "Cholesterol-free media + simvastatin (0.04 μM)", "setting": "[1]; [16]", "value": 0.4287}, {"measurement": "Complete Media", "setting": "[1]; [17]", "value": 0.4959}, {"measurement": "Difference", "setting": "[1]; [8]", "value": 0.07}, {"measurement": "Cholesterol-free", "setting": "[2]; [18]", "value": 0.8914}, {"measurement": "Complete", "setting": "[2]; NCI-H292 cells, complete media, FDA drug library screen", "value": 1.03}, {"measurement": "Difference", "setting": "[2]; complete vs cholesterol-free media, >0 enhanced anti-cancer activity, about 0 neutral, <0 antagonist", "value": 0.14}]}
